Measurements reported in PMC8704606, “The Artemiside-Artemisox-Artemisone-M1 Tetrad: Efficacies against Blood Stage P. falciparum Parasites, DMPK Properties, and the Case for Artemiside” (Pharmaceutics, 2021).
Where two headings read alike, the source gives them in different places.

Legend:
[1] = Cytotoxicity (LDH assay) against HepG2 cells; assay type: cell-based; conditions: human, HepG2 cells (hepatocellular carcinoma)
Protocol: Cytotoxicity against mammalian hepatocellular carcinoma cells (HepG2 cells) was determined using the lactate dehydrogenase assay (LDH, Biovision Inc., Milpitas, CA, USA). […] Compound working solutions were prepared from 10 mM stock solutions (100% DMSO) in complete DMEM to a final DMSO (Sigma-Aldrich) conc. of <0.1% (vol/vol). […] Data analysis was performed using GraphPad Prism (version 6) software.

[2] = tested on: CQ-resistant P. yoelii NS strain; conditions: cited from earlier work
[3] = tested on: Toxoplasma gondii (Tg); parameters: method as in PMID 19635951; conditions: read-out: EC50 against Tg in vitro; cited from earlier work
[4] = tested on: early-stage (EG) Pf NF54 gametocytes; parameters: method as in PMID 29866868; conditions: early-stage gametocytes >95% stages II-III; 48 h incubation; ± SEM; cited from earlier work
[5] = tested on: asexual blood stages of Pf W2 (drug resistant); parameters: method as in PMID 29866868, PMID 31998692; conditions: cited from earlier work
[6] = tested on: Chinese hamster ovary (CHO) cells; parameters: method as in PMID 29866868, PMID 31998692; conditions: other cell lines including CHO cells; read-out: EC50 cytotoxicity; cited from earlier work
[7] = tested on: asexual blood stages of Pf K1 (drug resistant); parameters: method as in PMID 29866868, PMID 31998692; conditions: cited from earlier work
[8] = tested on: Toxoplasma gondii (Tg); parameters: method as in PMID 19635951; conditions: IFN-γ−/− female mice, 10 mg/kg/d for 8 days after cessation of sulfadiazine; cited from earlier work
[9] = Pharmacokinetics and metabolism after iv and po administration; assay type: in vivo
Protocol: The plasma concentration-time profiles of the parent compounds and metabolites after administration iv and po to male C57/BL6 mice are presented in Figure 2, Figure 3 and Figure 4. Artemiside was quantifiable up to 24 h in all mice dosed iv and up to 7 h po (lower limit of quantitation LLOQ = 1.6 ng/mL or 0.004 μM) (Figure 2). […] For both artemiside and artemisox, the metabolite artemisone was quantifiable up to 3 h in both the po and iv groups (Figure 2 and Figure 3). Thereby it is confirmed that artemiside is rapidly converted via artemisox into artemisone. Artemisone itself was quantifiable up to three hours post dose (Figure 4). The mean circulating concentrations for the compounds and their metabolites are presented in Table S3a–f in the Supplementary Material 1. The metabolite M1 was also detected upon administration of artemiside, artemisox, and artemisone, but it was not quantified here; chromatograms indicating the presence of M1 are illustrated in Figure S3a–c in the Supplementary Material 1. In addition, the plasma concentration-time curves for artemiside and its metabolites artemisone and M1 following iv and po dosing in the same murine model are presented and discussed in detail elsewhere (cf. Figure 4 in reference).
All work was conducted with prior approval of the animal ethics committee of the University of Cape Town in accordance with the South African National Standards for the Care and Use of Animals for Scientific Purposes and guidelines from the South African Department of Health. The requirements and methods for the pharmacokinetics in vivo involving po and iv drug administration, sample extraction, analyses of samples by LC-MS/MS, and data analyses are described elsewhere. For the animal experiments and formulations, the compounds were dissolved in a 10:60:30 mixture of N,N-dimethylacetamide-polypropylene glycol-polyethylene glycol for intravenous dosing (iv) at 5 mg/kg. For the oral dose (po), compounds were individually dosed as a suspension in 0.5% (w/v) hydroxypropylmethylcellulose in water with 0.2% Tween80 at 50 mg/kg to male C57/BL6 mice (n = 3 for each group). For PK sampling, blood samples were collected at predetermined times (0.08, 0.25, 0.5, 1, 3, 5, 7, and 24 h) for both po and iv dosing via tail bleeding into heparinized tubes, centrifuged, and the plasma samples were stored at −80 °C until extraction. For preparation of samples, the frozen plasma samples were thawed and 15 μL was extracted by liquid–liquid extraction using a universal buffer (pH8) containing 10 ng/mL of the internal standard and ethyl acetate, and the extract was vortexed and centrifuged. Calibration standards and quality controls were extracted following the same procedure. Supernatants were dried down, reconstituted, and injected onto the column for LC-MS/MS analysis using an AB SCIEX 5500 QTRAP instrument coupled to an Agilent 1260 HPLC detection system as previously described.

C[C@H]1[C@H](N2CCS(=O)(=O)CC2)O[C@@H]2O[C@@]3(C)CC[C@H]4[C@H](C)CC[C@@H]1[C@@]24OO3 [Artemisone 7, Artemisone]
IC50 at 24 h [1]: > 50000 nM | P. yoelii ED90 po ([2]; Peters four-day test, mice, oral, ref S4 (24)): 5.0 mg/kg | P. yoelii ED90 sc ([2]; Peters four-day test, mice, subcutaneous, ref S4 (24)): 3.9 mg/kg | P. yoelii artesunate index sc ([2]; ref S4): 5.6 | EC50 [3]: 120 nM | IC50 [4]: 1.94 ± 0.11 nM | IC50 ([5]; asexual blood stage Pf W2, multidrug resistant, SYBR Green I, ± SEM): 1.6 ± 0.4 nM | RI = IC50 W2/IC50 NF54 [5]: 1.36 | EC50 [6]: > 241000 nM | IC50 ([7]; asexual blood stage Pf K1, multidrug resistant, SYBR Green I, ± SEM): 1.01 ± 0.19 nM | RI (resistance index) = IC50 K1/IC50 NF54 [7]: 0.85 | mice with prolonged survival, reactivation stage [8]: 60% | Mean iv circulating concentration ([9]; 5 h after iv 5 mg/kg artemisone 7): blq | Mean iv circulating concentration ([9]; 5 h after iv 5 mg/kg artemisox 6): blq | Mean po circulating concentration ([9]; 5 h after po 50 mg/kg artemiside 5): blq | Mean po circulating concentration ([9]; 5 h after po 50 mg/kg artemisone 7): blq | Mean iv circulating concentration ([9]; 7 h after iv 5 mg/kg artemiside 5): blq | Mean iv circulating concentration ([9]; 7 h after iv 5 mg/kg artemisone 7): blq | Mean iv circulating concentration ([9]; 7 h after iv 5 mg/kg artemisox 6): blq | Mean po circulating concentration ([9]; 7 h after po 50 mg/kg artemiside 5): blq | Mean po circulating concentration ([9]; 7 h after po 50 mg/kg artemisone 7): blq | Mean po circulating concentration ([9]; 7 h after po 50 mg/kg artemisox 6): blq | Mean iv circulating concentration ([9]; 24 h after iv 5 mg/kg artemiside 5): blq | Mean iv circulating concentration ([9]; 24 h after iv 5 mg/kg artemisone 7): blq | Mean iv circulating concentration ([9]; 24 h after iv 5 mg/kg artemisox 6): blq | Mean po circulating concentration ([9]; 24 h after po 50 mg/kg artemiside 5): blq | Mean po circulating concentration ([9]; 24 h after po 50 mg/kg artemisone 7): blq | Mean po circulating concentration ([9]; 24 h after po 50 mg/kg artemisox 6): blq | quantifiable up to, post dose ([9]; artemisone itself dosed, iv 5 mg/kg and po 50 mg/kg (Figure 4)): up to three | t½ ([9]; iv 5 mg/kg, parent drug, mean ± SD, 5 mg/kg): 23.4 ± 4.8 min | concentration at 0.08 h ([9]; male, C57/BL6, mouse, plasma, iv, 5 mg/kg, 0.08 h after iv 5 mg/kg artemiside 5, read-out: Mean iv circulating concentration): 117 nM | concentration at 0.08 h ([9]; male, C57/BL6, mouse, plasma, iv, 5 mg/kg, 0.08 h after iv 5 mg/kg artemisone 7, read-out: Mean iv circulating concentration): 3860 nM | concentration at 0.08 h ([9]; male, C57/BL6, mouse, plasma, iv, 5 mg/kg, 0.08 h after iv 5 mg/kg artemisox 6, read-out: Mean iv circulating concentration): 1110 nM | concentration at 0.25 h ([9]; male, C57/BL6, mouse, plasma, iv, 5 mg/kg, 0.25 h after iv 5 mg/kg artemiside 5, read-out: Mean iv circulating concentration): 247 nM | concentration at 0.25 h ([9]; male, C57/BL6, mouse, plasma, iv, 5 mg/kg, 0.25 h after iv 5 mg/kg artemisone 7, read-out: Mean iv circulating concentration): 2510 nM | concentration at 0.25 h ([9]; male, C57/BL6, mouse, plasma, iv, 5 mg/kg, 0.25 h after iv 5 mg/kg artemisox 6, read-out: Mean iv circulating concentration): 1400 nM | concentration at 0.5 h ([9]; male, C57/BL6, mouse, plasma, iv, 5 mg/kg, 0.5 h after iv 5 mg/kg artemiside 5, read-out: Mean iv circulating concentration): 270 nM
